In patent publication US5424296A, “2-Halo-2'-deoxyadenosines as therapeutic agents against malignant astrocytoma” (The Scripps Research Institute, priority 1993, dated 1995):
pIC50: −log10 of the molar value. Read-outs that look alike come from different tables or passages of the source.

Experiments:
[1] = test system: granulocyte; experiment: Clinical treatment of multiple sclerosis, granulocyte counts; type: in vivo, human; details: about 0.1 mg/kg/day, seven day courses of continuous infusion, after several courses
[2] = test system: malignant astrocytoma; experiment: Phase I study, tumor response in malignant astrocytoma; type: in vivo, human
Text: (§1) A response to this treatment process can be determined according to the criteria proposed by Macdonald et al., J. Clin. Oncol., 8:1277-1280 (1990). A complete response requires the disappearance of all enhancing tumor on consecutive CAT or MRI scans at least one month apart, off steroids, and that the patient be neurologically stable or improved. A partial response is defined as a greater or equal to 50 percent decrease in size (largest cross-sectional area) of enhancing tumor on consecutive CAT or MRI scans at least one month apart, steroids stable or reduced, and that the patient be neurologically stable or improved. All other tumor responses were designated as no response.
(§2) The patients received continuous infusions of either 0.10, 0.15 or 0.20 mg/kg/day over seven day time periods in up to five monthly cycles. The patients with malignant astrocytomas received either 0.10 or 0.15 mg/kg/day; none receiving 0.20 mg/kg/day.
(§3) The finally diluted solution was infused through central venus access using an infusion pump device (Pharmacia Deltec Cadd) for out-patients, or infused by usual venus infusion for in-patients.
(§4) Each of the patients, except three (one renal cell carcinoma and two malignant melanoma) patients, had received a prior treatment. Each of the patients with malignant astrocytoma had been treated both surgically and with X-rays or by chemotherapy.

[3] = test system: malignant melanoma; experiment: Phase I study, tumor response in malignant melanoma; type: in vivo, human; details: twelve patients
Text: as §1, §2, §3, §4

[4] = test system: renal cell carcinoma; experiment: Phase I study, tumor response in renal cell carcinoma; type: in vivo, human; details: two patients
Text: as §1, §2, §3, §4

[5] = Phase I study, toxicity; type: in vivo, human
Description: as §2, §3

[6] = test system: CFU-GM cells; details: 100 nM 2-CdA; cited from earlier work
[7] = test system: CML in blast crisis; details: cited from earlier work
[8] = test system: neutrophils; details: chronic lymphocytic leukemia, serum levels less than 10 nM, in most cases; cited from earlier work
[9] = test system: neutrophils; details: cutaneous T cell lymphoma, 0.1 mg/kg per day over 7 days; cited from earlier work
[10] = test system: granulocyte; details: hairy cell leukemia, cited from earlier work
[11] = test system: Erythroid progenitor cells; details: cultured marrow and blood cells from normal patients; cited from earlier work
[12] = test system: Primitive burst-forming unit-erythroid (pBFU-E) cells; details: read-out: IC50 (concentration required to inhibit 50 percent of growth); pBFU-E cells from normal patients; cited from earlier work
[13] = test system: Mature BFU-E (mBFU-E) cells; details: read-out: IC50 (concentration required to inhibit 50 percent of growth); mBFU-E cells from normal patients; cited from earlier work
[14] = test system: colony forming unit-erythroid (CFU-E) cells; details: read-out: IC50 (concentration required to inhibit 50 percent of growth); CFU-E cells from normal patients; cited from earlier work
[15] = test system: Colony forming unit-granulocyte macrophage (CFU-GM) cells; details: read-out: IC50 (concentration required to inhibit 50 percent of growth); CFU-GM cells from normal patients; cited from earlier work

Nc1nc(Cl)nc2c1ncn2[C@H]1C[C@H](O)[C@@H](CO)O1 [2-CdA, 2-chloro-2'-deoxyadenosine]
granulocyte counts [1]: substantially unchanged
duration of partial response ([2]; patient No. 1, grade 2 astrocytoma, four cycles at 0.10 mg/kg/day): seven
coronal MRI of brain after treatment ([2]; patient No. 1, intravenous contrast): resolution of tumor enhancement
axial spin echo MRI of brain after treatment ([2]; patient No. 12): complete regression of the edema and shrinkage of the cyst
cyst on sagittal T1-weighted imaging after treatment ([2]; patient No. 12): smaller in size and higher in signal intensity
sagittal T1-weighted imaging of brain after treatment ([2]; patient No. 12): complete regression of the temporal lobe swelling, with restoration of a normal sulcal pattern
duration of partial response ([2]; patient No. 12, GBM, five cycles at 0.15 mg/kg/day): nine
responding patients (partial response) ([2]; two of seven malignant astrocytoma patients, 0.1 or 0.15 mg/kg/day): 28.6%
median duration of partial response ([2]; two responding patients): eight
patients with partial response [3]: None
patients with partial response [4]: None
myelosuppression per cycles ([5]; 0.10 mg/kg/day): 1/18
myelosuppression per cycles ([5]; 0.15 mg/kg/day): 5/22
myelosuppression per cycles ([5]; 0.20 mg/kg/day): 3/4
myelosuppression, dose dependence ([5]; 0.10, 0.15, 0.20 mg/kg/day): increased with dosage
principal toxic effect ([5]; all patients): Myelosuppression
alopecia, nausea, vomiting, cardiopulmonary, renal or hepatic toxicity ([5]; any patient of the study): No alopecia, nausea, vomiting, cardiopulmonary, renal or hepatic toxicity occurred
myelosuppression in patients with previous biologic therapy ([5]; in vivo): all of the patients with previous biologic therapy treatment developed myelosuppression
patients with prior chemotherapy among those who developed myelosuppression ([5]; in vivo): five of eight
patients with prior chemotherapy among those without myelosuppression ([5]; in vivo): two of thirteen
patients with prior biologic therapies among those exhibiting myelosuppression ([5]; interferon, interleukin-2, or lymphocyte-activated killer cells): Four of the eight
patients exhibiting myelosuppression ([5]; malignant astrocytoma (GBM), seven patients): Two of the seven
patients exhibiting delayed neurotoxicities ([5]; malignant melanoma with prior therapy, unknown whether directly from 2-CdA): Two
type of myelosuppression ([5]; one astrocytoma patient with prior surgical and X-ray treatments, after the fifth cycle): both neutropenia and thrombocytopenia
myelosuppression (grades 3 or 4 neutropenia or thrombocytopenia), frequency by pretreatment ([5]; prior exposure to systemic chemotherapy): more frequent in patients having had prior exposure to systemic chemotherapy
reduction of growth of CFU-GM cells [6]: 60%
detectable tumor ([7]; another of two patients): loss of detectable tumor
blast count ([7]; one of two patients): decrease in blast count
neutrophil count [8]: increase in neutrophil count
resistance of neutrophils relative to monocytes and lymphocytes [9]: more resistant to 2-CdA than their monocytes and lymphocytes
granulocyte counts ([10]; transient neutropenia): under 500 per microliter
neutropenia ([10]; particularly acute in patients already neutropenic): transient neutropenia
sensitivity of erythroid progenitor cells to 2-CdA [11]: dose-dependent sensitivity to 2-CdA, with that sensitivity decreasing as the stage of progenitor maturation increased
pIC50 [12]: 7.72
pIC50 [13]: 7.42
pIC50 [14]: 7.25
pIC50 [15]: 7.80
